Data: patent publication US20060116423A1, “Methods and compositions for treatment of central nervous system injury with isothiocyanates” (priority 2004, published 2006)

Experiments:
brain injured rats [1] = conditions: 5 mg/kg i.p. 6 hr post-injury, P<0.05 vs vehicle
From the text: This model utilizes a pneumatic piston to deform a controllable volume of exposed cortex over a range of impact velocities. All protocols were in compliance with NIH's Guide for the Care and Use of Laboratory Animals and approved by the Institutional Animal Care and Use Committee. A controlled cortical impact device was used to cause brain trauma as previously described^6,7,26. Rats were anesthetized using 5% isoflurane with a 1:1 N2O:O2 mixture. The animals were then maintained with a 2% isoflurane/2:1 N2O:O2 mixture, via a face mask. Animals were mounted in the injury device stereotaxic frame secured by ear bars and an incisor bar. The head was held in a horizontal plane with respect to the interaural line. A midline incision was made, the soft tissues reflected, and bilateral 6 mm craniectomies were made midway between the bregma and lambda with the medial edge of each craniectomy 1 mm lateral to midline. Rats received a single impact at 1.8 mm deformation with an impact velocity of 6 m/sec at an angle of 20° from the vertical plane. Core body temperature was maintained at 37-38° C. by use of a rectal thermometer coupled to a heating pad. Sham rats were anesthetized and received craniectomies but were not cortically impacted. After injury or sham operation, the scalp was sutured and the animal placed in an oxygenated chamber and monitored during recovery. […]

[2] = test system: tight junction proteins (claudin-5, occludin, ZO-1); conditions: administration six hours after injury; P<0.05 vs injury+vehicle
From the text: (§1) This model utilizes a pneumatic piston to deform a controllable volume of exposed cortex over a range of impact velocities. All protocols were in compliance with NIH's Guide for the Care and Use of Laboratory Animals and approved by the Institutional Animal Care and Use Committee. A controlled cortical impact device was used to cause brain trauma as previously described^6,7,26. Rats were anesthetized using 5% isoflurane with a 1:1 N2O:O2 mixture. The animals were then maintained with a 2% isoflurane/2:1 N2O:O2 mixture, via a face mask. Animals were mounted in the injury device stereotaxic frame secured by ear bars and an incisor bar. The head was held in a horizontal plane with respect to the interaural line. A midline incision was made, the soft tissues reflected, and bilateral 6 mm craniectomies were made midway between the bregma and lambda with the medial edge of each craniectomy 1 mm lateral to midline. Rats received a single impact at 1.8 mm deformation with an impact velocity of 6 m/sec at an angle of 20° from the vertical plane. Core body temperature was maintained at 37-38° C. by use of a rectal thermometer coupled to a heating pad. Sham rats were anesthetized and received craniectomies but were not cortically impacted. After injury or sham operation, the scalp was sutured and the animal placed in an oxygenated chamber and monitored during recovery. All rats were allowed to completely recover from the anesthesia after the surgery in a warm chamber before being sent back to the home cages. The type of brain trauma employed in this study produces both motor and cognitive deficits similar to those seen in human patients^6.
(§2) Rats were killed and brains were removed quickly and dip-frozen in −80° C. isopentane for 20 sec.

[3] = test system: glial fibrilary acidic protein (GFAP); conditions: 24 hr after injury; vehicle vs SUL-treated animals
From the text: as §1, §2

[4] = test system: von-Willebrand factor (vWF); conditions: administration six hours after injury; vs injury+vehicle
From the text: as §1, §2

[5] = test system: endothelial barrier antigen (EBA); conditions: 5 mg/kg and 20 mg/kg i.p. at 6 h after injury; samples at 24 h; cortices ipsilateral to injury; P<0.05 vs vehicle
From the text: as §1, §2

aquaporin-4 (AQP4) = test system: aquaporin-4 (AQP4)
From the text: as §1, §2

[6] = test system: rat endothelial cell antigen (RECA); conditions: 5 mg/kg and 20 mg/kg i.p. at 6 h after injury; samples at 24 h; cortices ipsilateral to injury; P<0.05 vs vehicle
From the text: as §1, §2

[7] = test system: focal cerebral ischemia (CCA/MCA occlusion); conditions: 5 mg/kg i.p. 15 minutes after onset of ischemia; 3 hours CCA/MCA occlusion; three days following ischemia; vehicle 153.87±11.01 mm^3; P<0.05
Protocol: Focal ischemia was induced by temporary left common carotid/middle cerebral artery (CCA/MCA) occlusion^1,41. Briefly, rats were anesthetized with chloral hydrate (0.45 g/kg IP). Core body temperature was maintained at 36.5±0.5° C. during ischemia The ipsilateral CCA was isolated and tagged through a ventral, cervical midline incision. A 0.005-inch-diameter stainless steel wire (Small Parts Inc) was placed underneath the left MCA rostral to the rhinal fissure, proximal to the major bifurcation of the MCA, and distal to the lenticulostriate arteries. The artery was then lifted, and the wire was rotated clockwise to ensure occlusion. The CCA was next occluded with an atraumatic aneurysm clip. Cerebral perfusion at the cortical surface, 3 mm distal to the locus of the MCA occlusion, was measured with a laser-Doppler flowmeter (LDF) (model BPM2, Vesamedic). […] After 180 minutes of MCA/CCA occlusion, reperfusion was established by reversing the occlusion procedure. […]
Morphometric determination of infarct volume was obtained with the help of a computer-based image analyzer operated by Brain software (Drexel University). […] The infarct volume (mm^3) was calculated from the difference between the volume of contralateral cortex and the volume of the TTC-stained (nonischemic) portion of ipsilateral cortex of each rat. […]

blood-brain barrier = assay: Blood-brain barrier integrity by Evan's blue dye extravasation after cortical impact injury; assay type: in vivo, rat; conditions: for blood-brain barrier permeability (Evans Blue extravasation): measured 24 h after TBI, vs vehicle
Protocol: Blood-brain barrier integrity was assessed using extravagation of Evan's blue (EB) dye. When injected through the jugular vein of normal animals, EB is not detected in the nervous tissue. However, if the blood-brain barrier is compromised, EB can be detected in nervous tissues. The amount of EB can be quantified by extracting the dye from the tissue followed by spectrophotometric analysis at 610 nm wavelength. One and one-half hours prior to the above time points, animals were anesthetized and injected with 3% EB in saline (4 ml/kg) through the jugular vein. Animals were transcardially perfused with phosphate-buffered saline (PBS) until the out-coming liquid was clear followed by 4% paraformaldehyde (400 ml). The brain was removed and 2 mm-thick sections were prepared and incubated with 3 ml of 99.5% formamide in a 60° C. water bath for 24 hr. At the end of the incubation, tissues were removed and the formamide solution was centrifuged in an Eppendorf centrifuge at 12,000 rpm for 20 min. The supernatant solution was collected and the optical density at 610 nm was measured to determine the relative amount of EB dye in each sample.

cortical cultures = conditions: pretreatment prior to hydrogen peroxide or glutamate exposure; in vitro; cited from earlier work
AQP4 mRNA = conditions: 5 mg/kg i.p.; 24 hr post-administration; cortical tissue; vehicle 100.00±18.16%; mean±S.E.M., n=3; P<0.05
Protocol: Animals were killed and parietal cortical tissues were quickly dissected out and frozen in dry ice. The frozen tissue was homogenized in 1.5ml of TriZol (Invitrogen) per 100 mg tissue, followed by addition of chloroform (1:5) and incubation on ice for 20 min. The homogenate was centrifuged at 14,000×g for 30 min, and total RNA was precipitated by isopropanol. 1.0 jig total RNA was reverse transcribed for 2 hours at 37° C. in a 20μl mixture containing 50 mM Tris-HCl pH 8.3, 75 mM KCl, 3.0 mM MgCl2, 10 mM DTT, 2.5 μM random hexamer, 1.0 mM each dNTP, 20 U RNasin, and 200 U Superscript II reverse transcriptase. The level of expression of each target gene was quantified using a BioRad iCycler real-time PCR system (BioRad, Hercules, CA). Reactions were carried out in triplicate. Each 30 μl reaction mixture consisted of 1.5 μl of the cDNA and 18 mM Tris-HCl pH 8.3, 55 mM KCl, 2.0 mM MgCl2, 0.2 mM of each dNTP, 0.5μM of each primer, 10 nM fluorescein, 1:75,000 dilution of Sybr green I, and 2 U AmpliTaq DNA polymerase. […] The resultant data was analyzed using the iCycler iQ Real-Time Detection System software^33.
To assess the ability of SUL to induce AQP4 expression, rats were intraperitonealy injected with either 5 mg/kg SUL prepared in corn oil or equal volume of vehicle. […] AQP4 mRNA levels were evaluated using real-time PCR. […]

brain injured rats [8] = test system: brain injured rats
From the text: as §1

brain swelling (edema) = conditions: P<0.05 vs vehicle
From the text: as §1

C[S@@+]([O-])CCCCN=C=S [sulforaphane]
extinction of fear memory (freezing during extinction training) (brain injured rats [1]; extinction on day 23 post-injury, n=8): Extinction was more rapid | memory for the extinction event (freezing to the tone) (brain injured rats [1]; tested 48 hr following extinction training, 3 tone presentations): reduced freezing to the tone | tight junction protein levels (claudin-5, occludin, ZO-1 immunoreactivity) [2]: significantly attenuated the loss | GFAP immunoreactivity in the penumbra region [3]: lack of difference | vWF levels (immunoreactivity) [4]: partially restored | EBA staining, integrated fluorescent intensity [5]: significantly improves | AQP4 immuno-fluorescence intensity in the injury core (aquaporin-4 (AQP4); 5 mg/kg i.p. at 6 hr after injury, 24 hr after injury, mean±S.E.M., n=4, injury-vehicle 13.79±2.22%, P<0.05): 35.25±3.13% | AQP4 levels (fluorescence intensity) in the penumbra region (aquaporin-4 (AQP4); post-injury administration, at both 24 hr and 3 days following injury, P<0.05 vs vehicle): significantly increased | RECA staining, integrated fluorescent intensity [6]: significantly improves | total infarct volume [7]: 100.52±16.35 mm^3 | blood-brain barrier permeability (Evans Blue extravasation) (blood-brain barrier; 5 mg/kg i.p. 6 hr after brain trauma): decreased blood-brain barrier permeability | Evan's blue dye extravasation into brain tissue (OD at 610 nm) (blood-brain barrier; 5 mg/kg i.p. at 6 h after TBI, 24 hr and 72 hr time points, ipsilateral side, P<0.05 vs vehicle): significantly attenuate dye extravasation | extravasation of Evan's Blue dye (blood-brain barrier; oral 60 mg/kg/day for one or four days, day one given 6 hr following brain injury, P<0.05 vs vehicle): effective in decreasing the extravasation of Evan's Blue dye | neuroprotection of cortical cultures (cortical cultures): robust neuroprotection | AQP4 mRNA level (AQP4 mRNA): 289.76±16.52% | spatial learning and memory (latency to find the hidden platform) (brain injured rats [8]; 5 mg/kg 6 hr post-injury, days 14-18 post-injury, n=9, P<0.05 vs vehicle): improved spatial learning and memory | working memory: latency to hidden platform, match trial vs location trial (brain injured rats [8]; 5mg/kg i.p. 6 hr post-injury, tested day 21 post-injury, n=8, P<0.05): find the hidden platform significantly faster during the match trial | difference in brain water content between injured and uninjured hemispheres (brain swelling (edema); 5 mg/kg ip at 15 min and at 6 hr after injury, measured at 3 day following injury): significantly decreases the difference in brain water content | brain water content (difference in percent water content between injured and uninjured hemispheres) (brain swelling (edema); 5 mg/kg ip at 15 min and at 6 hr following injury, measured 24 hr following injury): decreases brain water content | increase in brain water content (difference between injured and uninjured hemispheres) (brain swelling (edema); delayed administration, 5 mg/kg ip at 6 hr after injury, measured at 3 days after injury): significantly reduces the increase in brain water content

S=C=NCCc1ccccc1 [phenylethyl isothiocyanate]
blood-brain barrier permeability (Evans Blue extravasation) (blood-brain barrier; 4.6 mg/kg i.p. 6 hr after brain trauma): decreased blood-brain barrier permeability

C=CCN=C=S [allyl isothiocyanate]
blood-brain barrier permeability (Evans Blue extravasation) (blood-brain barrier; 2.8 mg/kg i.p. 6 hr after brain trauma): decreased blood-brain barrier permeability
